Assay results from PubChem BioAssay (NCI).
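1) Cells in 96-well plates. 2) Compound, 48 h, 5 concentrations. 3) Linear interpolation between surrounding doses. 4) Unreached endpoint = highest concentration. GI50 = concentration required for 50% inhibition of growth. TGI: concentration producing complete growth inhibition.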

Legend:
Experiment in all cases: growth of human tumour cells (NCI), 48 h
A549 NSCLC = test system: A549 NSCLC
OVCAR-4 ovarian = test system: OVCAR-4 ovarian
NCI-H23 lung = test system: NCI-H23 lung
SK-MEL-28 melanoma = test system: SK-MEL-28 melanoma
SF-268 CNS = test system: SF-268 CNS
RPMI-8226 leukemia = test system: RPMI-8226 leukemia
OVCAR-8 ovarian = test system: OVCAR-8 ovarian
CAKI-1 renal = test system: CAKI-1 renal

CNS(=O)(=O)NNS(=O)(=O)c1ccc(Cl)cc1
TGI (A549 NSCLC): > 100 µM
TGI (OVCAR-4 ovarian): > 100 µM
TGI (NCI-H23 lung): > 100 µM
TGI (SK-MEL-28 melanoma): > 100 µM
TGI (SF-268 CNS): > 100 µM
TGI (RPMI-8226 leukemia): > 100 µM
TGI (OVCAR-8 ovarian): > 100 µM
TGI (CAKI-1 renal): > 100 µM

c1ccc(P(=Nc2ccccc2N=P(c2ccccc2)(c2ccccc2)c2ccccc2)(c2ccccc2)c2ccccc2)cc1
TGI (A549 NSCLC): 12.6 µM
TGI (OVCAR-4 ovarian): 14.9 µM
TGI (NCI-H23 lung): 2.25 µM
TGI (SK-MEL-28 melanoma): > 100 µM
TGI (SF-268 CNS): > 100 µM
TGI (RPMI-8226 leukemia): 12.6 µM
TGI (OVCAR-8 ovarian): 12.2 µM
TGI (CAKI-1 renal): 3.72 µM

COC(CN1C=C(Sc2ccccc2)CC1)OC
TGI (A549 NSCLC): > 100 µM
TGI (OVCAR-4 ovarian): > 100 µM
TGI (NCI-H23 lung): 69.7 µM
TGI (SK-MEL-28 melanoma): > 100 µM
TGI (SF-268 CNS): > 100 µM
TGI (RPMI-8226 leukemia): 50.7 µM
TGI (OVCAR-8 ovarian): 86.9 µM
TGI (CAKI-1 renal): > 100 µM

COC(=O)CC1NC(=O)C1C1(C)OCCO1 (stereo unspecified)
TGI (A549 NSCLC): > 100 µM
TGI (OVCAR-4 ovarian): > 100 µM
TGI (NCI-H23 lung): > 100 µM
TGI (SK-MEL-28 melanoma): > 100 µM
TGI (SF-268 CNS): > 100 µM
TGI (RPMI-8226 leukemia): > 100 µM
TGI (OVCAR-8 ovarian): > 100 µM

CCCCCCN(N)C(=O)CC#N
TGI (A549 NSCLC): > 100 µM
TGI (OVCAR-4 ovarian): > 100 µM
TGI (NCI-H23 lung): > 100 µM
TGI (SK-MEL-28 melanoma): > 100 µM
TGI (SF-268 CNS): > 100 µM
TGI (RPMI-8226 leukemia): 58.5 µM
TGI (OVCAR-8 ovarian): > 100 µM
TGI (CAKI-1 renal): > 100 µM

C=C1CCC2[C@@H](CCC3[C@]2(C)CCC[C@]3(C)C(=O)OC)[C@@H]1CC=O (stereo partly specified)
GI50 (A549 NSCLC): 62 µM
TGI (A549 NSCLC): > 100 µM
TGI (OVCAR-4 ovarian): 85.2 µM
TGI (NCI-H23 lung): 66.5 µM
TGI (SK-MEL-28 melanoma): 91.8 µM
TGI (SF-268 CNS): > 100 µM
GI50 (RPMI-8226 leukemia): 19.1 µM
TGI (RPMI-8226 leukemia): 57.6 µM
TGI (OVCAR-8 ovarian): 49.2 µM
GI50 (CAKI-1 renal): 35.8 µM
TGI (CAKI-1 renal): > 100 µM

Cn1c2ccccc2n2c(=O)c3c(c(C#N)c12)CCCC3
TGI (A549 NSCLC): > 100 µM
TGI (OVCAR-4 ovarian): > 100 µM
TGI (NCI-H23 lung): > 100 µM
TGI (SK-MEL-28 melanoma): > 100 µM
TGI (SF-268 CNS): > 100 µM
TGI (RPMI-8226 leukemia): > 100 µM
TGI (OVCAR-8 ovarian): > 100 µM
TGI (CAKI-1 renal): > 100 µM

COc1ccc(C=O)c(NC(=O)C(C)C)c1
TGI (A549 NSCLC): > 100 µM
TGI (OVCAR-4 ovarian): > 100 µM
TGI (NCI-H23 lung): > 100 µM
TGI (SK-MEL-28 melanoma): > 100 µM
TGI (SF-268 CNS): > 100 µM
TGI (RPMI-8226 leukemia): 66.3 µM
TGI (OVCAR-8 ovarian): > 100 µM

O=C(NC1CCCC1=O)c1ccccc1 (stereo unspecified)
TGI (A549 NSCLC): > 100 µM
TGI (OVCAR-4 ovarian): > 100 µM
TGI (NCI-H23 lung): > 100 µM
TGI (SK-MEL-28 melanoma): > 100 µM
TGI (SF-268 CNS): > 100 µM
TGI (OVCAR-8 ovarian): > 100 µM
TGI (CAKI-1 renal): > 100 µM

CC1(C)OCC(C(O)C2OC(C)(C)OC2/C=N\O)O1 (stereo unspecified)
TGI (A549 NSCLC): > 100 µM
TGI (NCI-H23 lung): > 100 µM
TGI (SK-MEL-28 melanoma): > 100 µM
TGI (SF-268 CNS): > 100 µM
TGI (RPMI-8226 leukemia): > 100 µM
TGI (OVCAR-8 ovarian): > 100 µM

CC(C)c1c2[nH]c3ccccc3c2c(C(C)C)c2[nH]c3ccccc3c12
TGI (A549 NSCLC): > 100 µM
TGI (OVCAR-4 ovarian): > 100 µM
TGI (NCI-H23 lung): > 100 µM
TGI (SK-MEL-28 melanoma): > 100 µM
TGI (SF-268 CNS): > 100 µM
TGI (RPMI-8226 leukemia): > 100 µM
TGI (OVCAR-8 ovarian): > 100 µM
TGI (CAKI-1 renal): > 100 µM

CCCCCCCCCCCCCP(=O)(O)NCC(N)=O
TGI (A549 NSCLC): > 100 µM
TGI (OVCAR-4 ovarian): > 100 µM
TGI (NCI-H23 lung): > 100 µM
TGI (SK-MEL-28 melanoma): > 100 µM
TGI (SF-268 CNS): > 100 µM
TGI (RPMI-8226 leukemia): > 100 µM
TGI (OVCAR-8 ovarian): > 100 µM

CC1CN1c1c(C(=O)/C=C/c2ccccc2)c(-c2ccccc2)nn(C)c1=O (stereo unspecified)
TGI (A549 NSCLC): 70.5 µM
TGI (OVCAR-4 ovarian): 31.9 µM
TGI (NCI-H23 lung): 31.8 µM
TGI (SK-MEL-28 melanoma): 47.5 µM
TGI (SF-268 CNS): 56.2 µM
TGI (OVCAR-8 ovarian): 41 µM
TGI (CAKI-1 renal): 81.7 µM

Fc1cccc(C2SCc3nc4ccccc4n32)c1F (stereo unspecified)
TGI (A549 NSCLC): > 100 µM
TGI (OVCAR-4 ovarian): > 100 µM
TGI (NCI-H23 lung): > 100 µM
TGI (SF-268 CNS): > 100 µM
TGI (RPMI-8226 leukemia): > 100 µM
TGI (OVCAR-8 ovarian): > 100 µM
TGI (CAKI-1 renal): > 100 µM

O=C([CH-]C(=O)c1ccccc1)c1ccccc1.O=C([CH-]C(=O)c1ccccc1)c1ccccc1.[OH-].[OH-].[Ti+4]
GI50 (A549 NSCLC): > 100 µM
TGI (A549 NSCLC): > 100 µM
GI50 (SF-268 CNS): 92.5 µM
TGI (SF-268 CNS): > 100 µM
GI50 (RPMI-8226 leukemia): 41.3 µM
TGI (RPMI-8226 leukemia): > 100 µM
GI50 (OVCAR-8 ovarian): 55 µM
TGI (OVCAR-8 ovarian): > 100 µM
GI50 (CAKI-1 renal): 85.3 µM
TGI (CAKI-1 renal): > 100 µM

COCCOCOc1ccc(OCOCCOC)c2c1C(=O)c1ccccc1C2=O
TGI (A549 NSCLC): > 100 µM
TGI (OVCAR-4 ovarian): > 100 µM
TGI (NCI-H23 lung): > 100 µM
TGI (SK-MEL-28 melanoma): > 100 µM
TGI (SF-268 CNS): > 100 µM
TGI (OVCAR-8 ovarian): > 100 µM
TGI (CAKI-1 renal): > 93 µM

CC1(C)C2CCC13CS(=O)(=O)N1O[C@]13C(=O)O2 (stereo partly specified)
TGI (A549 NSCLC): > 100 µM
TGI (OVCAR-4 ovarian): > 100 µM
TGI (NCI-H23 lung): > 100 µM
TGI (SK-MEL-28 melanoma): > 100 µM
TGI (SF-268 CNS): > 100 µM
TGI (RPMI-8226 leukemia): > 100 µM
TGI (OVCAR-8 ovarian): > 100 µM

CN(C)CCC(/C=C/c1ccccc1)=N\Nc1ccc(Cl)cc1Cl
TGI (A549 NSCLC): 30.5 µM
TGI (OVCAR-4 ovarian): 29.7 µM
TGI (NCI-H23 lung): 31.4 µM
TGI (SK-MEL-28 melanoma): 27.3 µM
TGI (SF-268 CNS): 28.2 µM
TGI (RPMI-8226 leukemia): 30.1 µM
TGI (OVCAR-8 ovarian): 30.3 µM

COc1cc(-c2cc(-c3cc([N+](=O)[O-])c(/C=N/NC(=O)c4ccncc4)o3)ccc2OC)ccc1C
TGI (A549 NSCLC): > 100 µM
TGI (OVCAR-4 ovarian): > 100 µM
TGI (NCI-H23 lung): > 100 µM
TGI (SK-MEL-28 melanoma): > 100 µM
TGI (SF-268 CNS): > 100 µM
TGI (RPMI-8226 leukemia): > 100 µM
TGI (CAKI-1 renal): > 100 µM

COC(=O)C(C)(C)N=CN(C)C
TGI (A549 NSCLC): > 100 µM
TGI (OVCAR-4 ovarian): > 100 µM
TGI (NCI-H23 lung): > 100 µM
TGI (SK-MEL-28 melanoma): > 100 µM
TGI (SF-268 CNS): > 100 µM
TGI (OVCAR-8 ovarian): > 100 µM
TGI (CAKI-1 renal): > 100 µM

C/C=C(\C)c1cc(O)c(C)c2c1Oc1cc(O)c(Cl)c(C)c1C(=O)O2
TGI (A549 NSCLC): 74 µM
TGI (OVCAR-4 ovarian): 34.5 µM
TGI (NCI-H23 lung): 38.6 µM
TGI (SK-MEL-28 melanoma): 72.2 µM
TGI (SF-268 CNS): 66 µM
TGI (OVCAR-8 ovarian): 45.9 µM
TGI (CAKI-1 renal): > 100 µM

O=P1(Oc2ccccc2)C(c2ccccc2)C(c2ccccc2)=NN1c1ccccc1 (stereo unspecified)
TGI (A549 NSCLC): 93.8 µM
TGI (OVCAR-4 ovarian): 86.3 µM
TGI (NCI-H23 lung): 51.9 µM
TGI (SK-MEL-28 melanoma): 64.2 µM
TGI (SF-268 CNS): 93.6 µM
TGI (OVCAR-8 ovarian): > 100 µM
TGI (CAKI-1 renal): 65 µM
